Key:
Assay type in all cases: in vivo, New Zealand white rabbits
normal conscious rabbits [1] = assay: Ventricular pacing-induced myocardial ischaemia (ST-segment elevation), normal rabbits; conditions: for intracavitary ST-segment elevation / anti-ischaemic effect of combination with nitroglycerin: normal conscious rabbits; for intracavitary ST-segment elevation: drug alone; for anti-ischaemic effect of combination with nitroglycerin: nitroglycerin combined with the drug; for ST-segment elevation: normal rabbit
Protocol: (§1) The experiments are carried out with adult, male New Zealand white rabbits, weighing 3.0-3.5 kg, housed as described in Am. […] Physiol, 35: H2033-H2041 and J. Moll Cell.. Cardiol.
(§2) The induction of global myocardial ischaemia was based on a method described as above.

normal conscious rabbits [2] = assay: Hyperinsulinaemic euglycaemic glucose clamping (insulin sensitivity), normal rabbits; conditions: for Glucose infusion rate: normal rabbit; for M values of hyperinsulinaemic and euglycaemic glucose clamping: normal rabbits
Protocol: (§3) The experiments are carried out with adult, male New Zealand white rabbits, weighing 3.0-3.5 kg, housed as described in Am. J. Physiol 1994, Heart Circ. Physiol, 35: H2033-H2041 and J. Moll Cell.. Cardiol. 1997, 29: 1977-1983.
(§4) To estimate insulin sensitivity and/or insulin resistance, hyperinsulinaemic (100 eU/ml) euglycaemic (5.5 mM/l) glucose clamping was used. The glucose clamping values (M) were established as values of glucose infusion rates expressed in mg/kg/min to maintain blood glucose level at 5.5 mM/l.

[3] = test system: streptozotocin diabetic rabbits; assay: Femoral nerve conduction velocity, streptozotocin diabetes; conditions: for Nerve conduction velocity: femoral “C” fibers, streptozotocin diabetic rabbit; for nerve conduction in “C” fibres: streptozotocin-diabetes model, drug alone, nitroglycerin 12-h patch on vs 12-h patch off over three days
Protocol: as §3
These series of experiments were carried out to verify/exclude sensory neuropathy. Left saphenous nerve conduction velocity was determined as described in Eur J. Pharmacol 1999, 386:83-88.
Streptozotocin (40 mg/kg i.v.) produced a decrease in nerve conduction velocity in femoral “A” and “C” fibres, respectively, as determined 8 weeks after streptozotocin injection. […] The combination of any of these drugs with nitroglycerin yielded an improvement of conduction velocity in streptozotocin-diabetic aminals similar to that seen with nitroglycerin alone.

[4] = test system: hypercholesterolaemic, insulin resistant conscious rabbits; assay: Hyperinsulinaemic euglycaemic glucose clamping (insulin sensitivity), hypercholesterolaemic rabbits; conditions: for Glucose infusion rate / M values of hyperinsulinaemic and euglycaemic glucose clamping / synergism (increased effectivity) on glycaemic control: hypercholesterolaemic; for Glucose infusion rate: insulin resistant rabbit; for synergism (increased effectivity) on glycaemic control: drug combined with nitroglycerin; for Insulin sensitivity: percent of means, control = 100
Protocol: as §1, §4

[5] = test system: hypercholesterolaemic, insulin resistant conscious rabbits; assay: Ventricular pacing-induced myocardial ischaemia (ST-segment elevation), hypercholesterolaemic rabbits; conditions: for ST-segment elevation / intracavitary ST-segment elevation / ischaemic changes produced by VOP: hypercholesterolaemic; for ST-segment elevation: insulin resistant rabbit; for intracavitary ST-segment elevation / ischaemic changes produced by VOP: insulin resistant rabbits, drug alone
Protocol: as §1, §2

[6] = test system: hypercholesterolaemic, insulin resistant rabbits; assay: Femoral nerve conduction velocity, hyperlipidaemia-induced insulin resistance; conditions: femoral “C” fibers, hypercholesterolaemic, insulin resistant rabbit
Protocol: as §1
These series of experiments were carried out to verify/exclude sensory neuropathy.

[7] = placebo patch, troglitazon 70 mg/kg p.os, metformin 5 mg/kg i.v., glibenclamide 1 mg/kg i.v., idazoxan 2 mg/kg i.v.
[8] = with active patch (nitroglycerin 0.07 mg/kg/h), alone (Control) or with the drug
[9] = placebo patch, troglitazon 70 mg/kg p.os, metformin 5 mg/kg i.v., glibenclamide 1 mg/kg i.v., idazoxan 2 mg/kg i.v., mean
[10] = with active patch (nitroglycerin 0.07 mg/kg/h), alone (Control) or together with the drug, troglitazon 70 mg/kg p.os, metformin 5 mg/kg i.v., glibenclamide 1 mg/kg i.v., idazoxan 2 mg/kg i.v.
[11] = drug alone, troglitazon 70 mg/kg/day p. os over 3 days, metformin 5 mg/kg/day i.v. over 3 days, glibenclamide 1 mg/kg i.v., idazoxan 2 mg/kg i.v.
[12] = placebo patch, troglitazon 70 mg/kg p.os, metformin 5 mg/kg i.v., glibenclamide 1 mg/kg i.v., idazoxan 2 mg/kg i.v., healthy untreated 6.2
[13] = with active patch (nitroglycerin 0.07 mg/kg/h), alone (Control) or together with the drug, same doses
[14] = insulin resistant rabbits, in the presence of nitroglycerin and the drug, compared to the placebo patch group
[15] = nitroglycerin patch 0.07 mg/kg/h, metformin 5 mg/kg i.v., troglitazon 70 mg/kg p.os
[16] = metformin 100 mg/kg p.os, ISMN controlled release 5 mg/kg p.os

Row | Compound | intracavitary ST-segment elevation (normal conscious rabbits [1]) | anti-ischaemic effect of combination with nitroglycerin (normal conscious rabbits [1]) | ST-segment elevation (normal conscious rabbits [1]; [7]) [mV] | ST-segment elevation (normal conscious rabbits [1]; [8]) [mV] | Glucose infusion rate (normal conscious rabbits [2]; [9]) [mg/kg/min] | Glucose infusion rate (normal conscious rabbits [2]; [10]) [mg/kg/min] | M values of hyperinsulinaemic and euglycaemic glucose clamping (normal conscious rabbits [2]; [11]) | Nerve conduction velocity [3, 12] [dm/s] | Nerve conduction velocity [3, 8] [dm/s] | nerve conduction in “C” fibres [3] | Glucose infusion rate [4, 7] [mg/kg/min] | Glucose infusion rate [4, 13] [mg/kg/min] | M values of hyperinsulinaemic and euglycaemic glucose clamping [4, 14] | synergism (increased effectivity) on glycaemic control ([4]; insulin resistant rabbits) | ST-segment elevation ([5]; placebo patch, same doses) [mV] | ST-segment elevation [5, 8] [mV] | intracavitary ST-segment elevation / ischaemic changes produced by VOP [5] | Insulin sensitivity [4, 15] [%] | also measured
1 | COc1ccc(Cl)cc1C(=O)NCCc1ccc(S(=O)(=O)NC(=O)NC2CCCCC2)cc1 [Glibenclamide, glibenclamide] | without effect | anti-ischaemic effect similar to that produced by nitroglyc erin alone | 1.4 ± 0.08 | 0.8 ± 0.08 | 14.667 | 16.500 | without effect | 2.9 ± 0.24 | 3.6 ± 0.2 | Neither troglitazon,nor glibenclamide, idazoxan or metformin produced any effect | 8.833 | 12.333 | significantly increased | synergism | 1.9 ± 0.40 | 1.5 ± 0.13 | without effect |  | 
2 | Cc1c(C)c2c(c(C)c1O)CCC(C)(COc1ccc(CC3SC(=O)NC3=O)cc1)O2 (centres unmarked) [Troglitazon, troglitazone] |  |  | 1.1 ± 0.08 | 0.7 ± 0.09 | 17.167 | 19.333 |  | 3.2 ± 0.3 | 3.6 ± 0.2 |  | 11.000 | 14.667 |  |  | 1.6 ± 0.12 | 1.08 ± 0.10 |  | 122.2 | Nerve conduction velocity ([6]; placebo patch, troglitazon 70 mg/kg p.os): 4.6 ± 0.4 dm/s; Nerve conduction velocity ([6]; with active patch (nitroglycerin 0.07 mg/kg/h), alone (Control) or with troglitazon 70 mg/kg p.os): 5.9 ± 0.2 dm/s
3 | CN(C)C(=N)N=C(N)N [Metformin, metformine] | without effect | anti-ischaemic effect similar to that produced by nitroglyc erin alone | 1.4 ± 0.08 | 0.8 ± 0.10 | 15.667 | 19.833 | without effect | 3.1 ± 0.2 | 3.6 ± 0.2 | Neither troglitazon,nor glibenclamide, idazoxan or metformin produced any effect | 10.833 | 14.500 | significantly increased |  | 2.1 ± 0.13 | 1.5 ± 0.08 | without effect | 120.4 | Glucose infusion rate (normal conscious rabbits [2]; [16]): 14.80 ± 0.0800 mg/kg/min; M values of hyperinsulinaemic and euglycaemic glucose clamping (normal conscious rabbits [2]; drug alone vs control, isosorbide-5-mononitrate 1 mg/kg/day (Olicard 40), metformin 100 mg/kg/day p.os over 3 days): without any effect; M values of hyperinsulinaemic and euglycaemic glucose clamping (normal conscious rabbits [2]; in the presence of transdermal nitroglycerin combined with the drug): significantly increased; M values of hyperinsulinaemic and euglycaemic glucose clamping (normal conscious rabbits [2]; metformin 100 mg/kg/day p.os in the presence of ISML (ISMN)): significant increase; Glucose infusion rate [4, 16]: 11.70 ± 1.0300 mg/kg/min; M values of hyperinsulinaemic and euglycaemic glucose clamping ([4]; insulin resistant rabbits vs control, ISMN 5 mg/kg/day (Olicard 40), metformin 100 mg/kg/day p.os over 3 days): significant increase; Insulin sensitivity ([4]; ISMN controlled release 5 mg/kg p.os, metformin 100 mg/kg p.os): 120.6%
4 | c1ccc2c(c1)OCC(C1=NCCN1)O2 (centres unmarked) [Idazoxan, idazoxane] |  | anti-ischaemic effect similar to that produced by nitroglyc erin alone | 1.4 ± 0.05 | 0.8 ± 0.09 | 14.667 | 16.000 | without effect | 2.8 ± 0.26 | 3.4 ± 0.2 | Neither troglitazon,nor glibenclamide, idazoxan or metformin produced any effect | 8.500 | 12.833 | significantly increased | synergism | 2.3 ± 0.50 | 1.8 ± 0.16 | aggravated ischaemic changes |  | ventricular extrasystoles on VOP ([5]; insulin resistant animals, idazoxan 2 mg/kg i.v.): VOP induced ventricular extrasystolesin the insulin resistant animals

From patent publication US20040068005A1, “Pharmaceutical combinations” (priority 2000, published 2004)
